{
  "source": "paper PMC10104807",
  "about": "“Modulation of tau tubulin kinases (TTBK1 and TTBK2) impacts ciliogenesis” (Scientific Reports, 2023)",
  "key": {"MAP4K2": {"molecular_target": "T1, MAP4K2 (Homo sapiens, UniProt Q12851)", "T1 construct": "purchased Eurofins (radiometric) / Eurofins DiscoverX scanMAX / Reaction Biology / SignalChem", "T1 sequence (Q12851 1-820)": "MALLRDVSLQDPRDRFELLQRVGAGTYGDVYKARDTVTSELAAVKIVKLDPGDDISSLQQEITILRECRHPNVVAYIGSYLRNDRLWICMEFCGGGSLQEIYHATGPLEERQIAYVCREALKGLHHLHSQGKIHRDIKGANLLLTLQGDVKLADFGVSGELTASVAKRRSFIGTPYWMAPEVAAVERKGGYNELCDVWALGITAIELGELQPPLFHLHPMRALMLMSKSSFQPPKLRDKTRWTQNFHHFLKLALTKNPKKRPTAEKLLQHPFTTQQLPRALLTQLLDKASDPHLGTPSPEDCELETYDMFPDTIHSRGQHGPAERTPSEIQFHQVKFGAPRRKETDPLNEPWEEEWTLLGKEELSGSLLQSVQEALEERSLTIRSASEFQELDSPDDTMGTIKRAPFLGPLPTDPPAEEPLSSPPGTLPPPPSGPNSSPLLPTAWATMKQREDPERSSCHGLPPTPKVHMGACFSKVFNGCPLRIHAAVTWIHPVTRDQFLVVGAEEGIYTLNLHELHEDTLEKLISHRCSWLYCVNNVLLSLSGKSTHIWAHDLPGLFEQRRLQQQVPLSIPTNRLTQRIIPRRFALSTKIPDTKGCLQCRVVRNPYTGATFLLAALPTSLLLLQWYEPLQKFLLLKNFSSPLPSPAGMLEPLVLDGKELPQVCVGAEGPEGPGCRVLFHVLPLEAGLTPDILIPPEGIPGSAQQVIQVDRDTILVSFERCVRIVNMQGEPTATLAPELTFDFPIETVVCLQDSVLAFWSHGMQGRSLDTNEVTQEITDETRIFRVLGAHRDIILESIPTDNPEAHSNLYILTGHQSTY", "test": "DiscoverX scanMAX binding assay", "settings": "for MAP4K2 % control at 1000nM: 1 μM", "excerpt": "(§1) This panel includes 403 wild-type (WT) human kinases but not TTBK1/2. […] Substantial overlap between the MRC and DiscoverX scanMAX kinase panels allows the comparison of results for the same kinases in two different assay formats (enzymatic versus binding, respectively) at the same concentration. Selectivity results are included in two columns within Table 1. […] The rightmost column converts this selectivity score into the number of kinases with a PoC < 10 in the scanMAX panel.\n(§2) The Eurofins DiscoverX Corporation scanMAX assay platform was employed to assess the selectivity of specific analogs at a single concentration (1 µM). As described previously, this assay platform profiles a compound against 403 wild-type human kinases and delivers percent of control (PoC) values. These percent of control values are included in Table 1 and corresponding kinome tree diagrams as well as tables for each analog included in Fig. S1."}, "TAOK1": {"molecular_target": "T2, TAOK1 (Homo sapiens, UniProt Q7L7X3)", "T2 construct": "purchased Eurofins", "T2 sequence (Q7L7X3 1-1001)": "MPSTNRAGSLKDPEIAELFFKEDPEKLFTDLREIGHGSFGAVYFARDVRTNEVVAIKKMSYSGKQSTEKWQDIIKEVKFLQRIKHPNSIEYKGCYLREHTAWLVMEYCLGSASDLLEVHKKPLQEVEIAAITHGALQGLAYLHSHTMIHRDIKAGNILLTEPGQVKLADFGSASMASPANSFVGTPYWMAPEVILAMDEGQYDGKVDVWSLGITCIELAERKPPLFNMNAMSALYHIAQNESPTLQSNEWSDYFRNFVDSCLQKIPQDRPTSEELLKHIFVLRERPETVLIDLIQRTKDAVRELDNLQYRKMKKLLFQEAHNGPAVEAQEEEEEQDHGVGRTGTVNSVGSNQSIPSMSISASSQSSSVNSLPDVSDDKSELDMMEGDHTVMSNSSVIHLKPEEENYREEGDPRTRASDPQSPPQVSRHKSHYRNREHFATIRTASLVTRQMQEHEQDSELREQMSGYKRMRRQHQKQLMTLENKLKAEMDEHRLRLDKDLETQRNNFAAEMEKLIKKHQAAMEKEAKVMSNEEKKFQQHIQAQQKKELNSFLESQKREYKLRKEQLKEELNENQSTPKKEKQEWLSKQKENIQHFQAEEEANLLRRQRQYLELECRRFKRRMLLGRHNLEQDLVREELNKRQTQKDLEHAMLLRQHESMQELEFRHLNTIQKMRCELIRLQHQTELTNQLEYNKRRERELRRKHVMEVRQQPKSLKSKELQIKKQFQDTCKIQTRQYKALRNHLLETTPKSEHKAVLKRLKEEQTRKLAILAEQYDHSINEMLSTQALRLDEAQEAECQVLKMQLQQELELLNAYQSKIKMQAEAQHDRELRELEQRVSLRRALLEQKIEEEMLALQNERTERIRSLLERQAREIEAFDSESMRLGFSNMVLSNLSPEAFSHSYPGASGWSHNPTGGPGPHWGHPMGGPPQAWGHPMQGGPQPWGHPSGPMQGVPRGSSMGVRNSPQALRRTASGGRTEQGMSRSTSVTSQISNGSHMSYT", "test": "DiscoverX scanMAX binding assay", "settings": "1 μM", "excerpt": "as §1, §2"}},
  "data": [
    {"smiles": "CC(C)(O)C#Cc1ccc2[nH]c3c(c2c1)-c1nc(N)ncc1CCC3", "note": "[AMG28, reference compound]", "values": [
      {"measurement": "percent of control (binding) at 1 µM", "setting": "MAP4K2; read-out: MAP4K2 % control at 1000nM", "value": 1.3, "unit": "%"},
      {"measurement": "TAOK1 % control at 1000nM / DiscoverX PoC value", "setting": "TAOK1", "value": 3.2, "unit": "% control"}
    ]},
    {"smiles": "CC(C)(O)C#Cc1ccc2[nH]c3c(c2c1)-c1nc(N)ncc1CC3", "note": "[Compound 1]", "values": [
      {"measurement": "MAP4K2 % control at 1000nM", "setting": "MAP4K2", "value": 2, "unit": "% control"},
      {"measurement": "TAOK1 % control at 1000nM / DiscoverX PoC value", "setting": "TAOK1", "value": 1.2, "unit": "% control"}
    ]},
    {"smiles": "CC(C)(O)C#Cc1ccc2[nH]cc(-c3ccnc(N)n3)c2c1", "note": "[Compound 3]", "values": [
      {"measurement": "MAP4K2 % control at 1000nM", "setting": "MAP4K2", "value": 1.6, "unit": "% control"},
      {"measurement": "TAOK1 % control at 1000nM / DiscoverX PoC value", "setting": "TAOK1", "value": 2.1, "unit": "% control"}
    ]}
  ]
}
